Laboratory results as given in ChEMBL document CHEMBL1134363 (J Med Chem, 2001).

Tests used:
[1] = target: Norepinephrine transporter (Rattus norvegicus, UniProt Q9WTR4); assay: In vitro binding affinity was determined against NA (noradrenaline) reuptake site of rat in presence of [3H]nisoxetine radioligand
[2] = target: Sodium-dependent serotonin transporter (Rattus norvegicus, UniProt P31652); assay: In vitro binding affinity was determined against serotonin reuptake site of rat in presence of [3H]paroxetine radioligand
Chain of Sodium-dependent serotonin transporter (P31652 whole entry): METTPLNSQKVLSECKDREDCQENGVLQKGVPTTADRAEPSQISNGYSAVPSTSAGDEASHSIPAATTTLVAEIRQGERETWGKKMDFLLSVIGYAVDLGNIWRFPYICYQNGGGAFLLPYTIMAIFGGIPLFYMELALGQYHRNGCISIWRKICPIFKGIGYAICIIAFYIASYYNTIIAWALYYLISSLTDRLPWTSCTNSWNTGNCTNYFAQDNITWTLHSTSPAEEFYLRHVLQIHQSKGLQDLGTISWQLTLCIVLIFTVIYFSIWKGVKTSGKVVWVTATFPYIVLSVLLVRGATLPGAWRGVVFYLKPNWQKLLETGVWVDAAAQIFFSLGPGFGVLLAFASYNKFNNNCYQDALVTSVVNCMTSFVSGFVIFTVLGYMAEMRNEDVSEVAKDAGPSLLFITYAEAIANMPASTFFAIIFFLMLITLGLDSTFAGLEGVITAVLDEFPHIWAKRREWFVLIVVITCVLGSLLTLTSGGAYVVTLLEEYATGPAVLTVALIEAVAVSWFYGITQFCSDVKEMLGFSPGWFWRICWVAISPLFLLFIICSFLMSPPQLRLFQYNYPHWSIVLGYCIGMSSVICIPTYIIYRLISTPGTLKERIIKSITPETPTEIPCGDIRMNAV

[3] = target: T1, Adrenergic receptor alpha-1 (Rattus norvegicus, UniProt P15823+P23944+P43140); assay: In vitro binding affinity against alpha-1 adrenergic receptor of rat in presence of [3H]-prazosin radioligand; format: protein assay
T1 sequence (P15823 whole entry): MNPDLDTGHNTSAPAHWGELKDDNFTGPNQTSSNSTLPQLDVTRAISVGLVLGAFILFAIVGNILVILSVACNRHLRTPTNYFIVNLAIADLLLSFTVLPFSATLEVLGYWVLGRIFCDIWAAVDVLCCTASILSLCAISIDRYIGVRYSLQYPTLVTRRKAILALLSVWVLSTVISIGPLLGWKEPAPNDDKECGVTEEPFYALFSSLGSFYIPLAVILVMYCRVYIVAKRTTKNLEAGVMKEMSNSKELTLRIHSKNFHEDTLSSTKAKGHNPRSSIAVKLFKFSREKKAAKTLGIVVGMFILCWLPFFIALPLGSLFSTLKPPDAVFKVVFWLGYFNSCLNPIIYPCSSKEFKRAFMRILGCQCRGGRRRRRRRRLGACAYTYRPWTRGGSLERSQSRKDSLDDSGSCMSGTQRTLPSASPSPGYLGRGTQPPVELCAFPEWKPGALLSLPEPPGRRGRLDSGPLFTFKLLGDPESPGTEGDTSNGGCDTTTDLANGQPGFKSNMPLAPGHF
T1 sequence (P23944 whole entry): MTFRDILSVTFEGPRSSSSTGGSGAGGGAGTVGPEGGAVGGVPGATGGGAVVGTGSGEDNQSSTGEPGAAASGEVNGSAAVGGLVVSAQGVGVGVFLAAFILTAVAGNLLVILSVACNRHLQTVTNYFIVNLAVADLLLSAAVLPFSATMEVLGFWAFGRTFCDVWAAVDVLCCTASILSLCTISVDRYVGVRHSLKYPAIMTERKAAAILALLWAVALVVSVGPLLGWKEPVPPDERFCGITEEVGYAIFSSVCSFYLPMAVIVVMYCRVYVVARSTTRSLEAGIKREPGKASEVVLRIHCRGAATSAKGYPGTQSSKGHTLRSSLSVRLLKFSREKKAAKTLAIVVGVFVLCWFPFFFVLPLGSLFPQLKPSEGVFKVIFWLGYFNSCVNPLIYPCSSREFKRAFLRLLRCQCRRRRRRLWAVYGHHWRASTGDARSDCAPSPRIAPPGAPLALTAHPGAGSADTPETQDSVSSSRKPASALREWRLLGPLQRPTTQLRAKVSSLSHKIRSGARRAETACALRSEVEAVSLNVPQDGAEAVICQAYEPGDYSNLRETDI
T1 sequence (P43140 whole entry): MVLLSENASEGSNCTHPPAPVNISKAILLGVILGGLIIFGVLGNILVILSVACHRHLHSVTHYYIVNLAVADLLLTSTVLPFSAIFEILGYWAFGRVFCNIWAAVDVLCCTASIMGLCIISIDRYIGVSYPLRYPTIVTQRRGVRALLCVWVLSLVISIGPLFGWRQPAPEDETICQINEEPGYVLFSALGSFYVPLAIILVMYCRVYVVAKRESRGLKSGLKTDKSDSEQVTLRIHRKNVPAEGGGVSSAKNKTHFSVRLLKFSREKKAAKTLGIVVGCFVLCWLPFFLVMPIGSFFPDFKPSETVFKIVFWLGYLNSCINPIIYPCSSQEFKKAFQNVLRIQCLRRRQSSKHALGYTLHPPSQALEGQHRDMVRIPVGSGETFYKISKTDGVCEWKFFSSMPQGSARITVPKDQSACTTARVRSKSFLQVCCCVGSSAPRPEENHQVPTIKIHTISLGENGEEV

[4] = target: T2, Adrenergic receptor alpha-2 (Rattus norvegicus, UniProt P22086+P19328+P22909); assay: In vitro binding affinity against alpha-2 adrenergic receptor of rat in presence of [3H]-RX 821002 radioligand; format: protein assay
T2 sequence (P22086 whole entry): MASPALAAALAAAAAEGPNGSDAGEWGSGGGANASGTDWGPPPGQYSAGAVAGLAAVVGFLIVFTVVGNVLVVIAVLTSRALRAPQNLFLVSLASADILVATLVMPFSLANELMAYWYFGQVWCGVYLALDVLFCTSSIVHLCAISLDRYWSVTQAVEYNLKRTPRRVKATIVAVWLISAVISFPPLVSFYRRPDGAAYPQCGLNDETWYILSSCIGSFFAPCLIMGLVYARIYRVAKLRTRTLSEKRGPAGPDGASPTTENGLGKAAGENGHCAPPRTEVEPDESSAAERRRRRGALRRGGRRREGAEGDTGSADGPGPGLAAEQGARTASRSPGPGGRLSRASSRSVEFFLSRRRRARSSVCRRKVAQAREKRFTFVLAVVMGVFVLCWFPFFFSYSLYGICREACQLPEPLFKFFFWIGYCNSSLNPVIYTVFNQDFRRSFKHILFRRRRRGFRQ
T2 sequence (P19328 whole entry): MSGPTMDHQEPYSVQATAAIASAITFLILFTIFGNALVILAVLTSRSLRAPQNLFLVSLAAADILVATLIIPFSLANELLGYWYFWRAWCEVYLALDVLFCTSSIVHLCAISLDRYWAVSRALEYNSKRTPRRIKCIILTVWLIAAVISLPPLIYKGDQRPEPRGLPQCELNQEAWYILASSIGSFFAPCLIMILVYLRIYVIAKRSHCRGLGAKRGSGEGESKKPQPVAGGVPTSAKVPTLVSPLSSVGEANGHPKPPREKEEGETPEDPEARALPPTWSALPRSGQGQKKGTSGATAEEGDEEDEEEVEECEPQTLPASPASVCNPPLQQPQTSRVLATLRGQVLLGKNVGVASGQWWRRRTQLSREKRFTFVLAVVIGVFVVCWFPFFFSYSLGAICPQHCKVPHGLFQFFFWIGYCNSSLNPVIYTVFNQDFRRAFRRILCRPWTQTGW
T2 sequence (P22909 whole entry): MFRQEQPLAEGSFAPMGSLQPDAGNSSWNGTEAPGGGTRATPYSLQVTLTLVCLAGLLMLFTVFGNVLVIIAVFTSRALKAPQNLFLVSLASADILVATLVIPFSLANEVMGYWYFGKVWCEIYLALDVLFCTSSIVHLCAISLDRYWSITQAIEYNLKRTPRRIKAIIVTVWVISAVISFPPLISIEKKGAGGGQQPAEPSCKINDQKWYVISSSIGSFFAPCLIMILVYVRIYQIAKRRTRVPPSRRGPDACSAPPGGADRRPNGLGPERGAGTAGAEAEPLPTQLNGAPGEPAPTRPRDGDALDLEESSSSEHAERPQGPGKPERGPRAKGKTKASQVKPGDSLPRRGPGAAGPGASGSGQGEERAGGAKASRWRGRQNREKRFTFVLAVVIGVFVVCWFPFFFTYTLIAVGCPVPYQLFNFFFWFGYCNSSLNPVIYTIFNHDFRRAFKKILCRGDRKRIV

Chain of Norepinephrine transporter (Q9WTR4 whole entry): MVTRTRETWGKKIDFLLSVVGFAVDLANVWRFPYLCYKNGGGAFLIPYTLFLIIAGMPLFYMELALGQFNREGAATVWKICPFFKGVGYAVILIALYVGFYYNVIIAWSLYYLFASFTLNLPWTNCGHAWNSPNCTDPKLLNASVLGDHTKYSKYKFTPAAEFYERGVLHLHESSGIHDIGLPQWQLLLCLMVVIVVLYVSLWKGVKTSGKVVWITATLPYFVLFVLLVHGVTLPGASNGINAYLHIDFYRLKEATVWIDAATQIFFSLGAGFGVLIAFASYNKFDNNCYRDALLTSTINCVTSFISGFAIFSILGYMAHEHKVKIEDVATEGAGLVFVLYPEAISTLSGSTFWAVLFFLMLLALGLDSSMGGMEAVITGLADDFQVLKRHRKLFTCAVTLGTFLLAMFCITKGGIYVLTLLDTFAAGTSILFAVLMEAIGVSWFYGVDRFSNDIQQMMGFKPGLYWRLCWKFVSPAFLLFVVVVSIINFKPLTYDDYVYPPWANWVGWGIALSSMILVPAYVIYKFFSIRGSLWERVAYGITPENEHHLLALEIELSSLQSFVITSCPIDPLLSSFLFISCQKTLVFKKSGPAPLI

| Compound | Ki [1] [µM] | Ki [2] [µM] | Log Ki [3] | Log Ki [4] |
| --- | --- | --- | --- | --- |
| C1=NCC([C@@H]2[C@@H]3Cc4ccccc4C[C@@H]32)N1 (stereo partly drawn) | 0.0501 | > 1 | -6.1 | -5.5 |
| C1=NCC([C@H]2[C@@H]3Cc4ccccc4C[C@@H]32)N1 (stereo partly drawn) | – | 0.631 | -6.3 | -6.3 |
| C1=NC[C@@H](C2CC23Cc2ccccc2C3)N1 (stereo partly drawn) | 0.316 | 0.398 | -5.2 | -7.1 |
| COc1cccc2c1C=C(CC1CN=CN1)CC2 (stereo not drawn) | 1 | – | -6.8 | -7.6 |
| C1=NCC(CC2CCc3ccccc3C2)N1 (stereo not drawn) | 0.1 | 0.01 | -6.1 | -7.8 |
| Fc1ccc2c(c1)CC(CC1CN=CN1)C2 (stereo not drawn) | 0.316 | – | -6.2 | -8.1 |
| NC1=NCC(CC2=Cc3ccccc3CC2)O1 (stereo not drawn) | 1 | 0.0631 | – | -6 |
| C1=NCC(CC2=Cc3ccccc3OC2)N1 (stereo not drawn) | 0.0631 | 0.251 | -5.8 | -6.9 |
| C1=NC[C@@]2(CC[C@@H]3Cc4ccccc4C[C@H]3C2)N1 (relative stereo) | > 1 | 0.0251 | -6.2 | -6.1 |
| C1=NC[C@H](C2C[C@@]23CCc2ccccc2C3)N1 (stereo partly drawn) | 0.398 | 0.0251 | -6 | -6.6 |
| C1=NC[C@@H]([C@H]2[C@@H]3CCc4ccccc4[C@@H]32)N1 | 0.251 | > 3.16 | – | -6.4 |
| C1=NC[C@H](C2CC23Cc2ccccc2C3)N1 (stereo partly drawn) | 0.0316 | 0.0501 | -6.9 | -9.1 |
| NC1=NC(CC2=Cc3ccccc3CC2)CN1 (stereo not drawn) | 0.0794 | 0.0398 | -7.2 | -6.5 |
| Cc1ccc2c(c1)C=C(CC1CN=C(N)O1)CC2 (stereo not drawn) | > 1 | 0.251 | -6.6 | -5.8 |
| Fc1cccc2c1CC(CC1CN=CN1)C2 (stereo not drawn) | 0.1 | 0.1 | -6.8 | -8.9 |
| Cc1cccc2c1C=C(CC1CN=CN1)CC2 (stereo not drawn) | 1 | 0.0126 | -6.2 | -6.8 |
| COc1ccc2c(c1)C=C(CC1CN=CN1)CC2 (stereo not drawn) | > 1 | 0.2 | -5.6 | -6.3 |
| C1=NCC2(CC3(Cc4ccccc4C3)C2)N1 | > 10 | 6.31 | -5.3 | -6.2 |
| C1=NC[C@@H](C[C@]23CCc4ccccc4C2C3)N1 (stereo partly drawn) | 0.316 | 0.02 | -5.9 | -7.2 |

| Compound | Ki [1] [µM] | Ki [2] [µM] | Log Ki [3] | Log Ki [4] |
| --- | --- | --- | --- | --- |
| C1=NC(CC2CCc3ccccc3O2)CN1 (stereo not drawn) | 0.794 | 0.501 | -6.5 | -7.3 |
| NC1=NCC(CC2=Cc3c(Cl)cccc3CC2)O1 (stereo not drawn) | > 1 | – | -6.5 | -6.2 |
| Fc1ccc2oc(CC3CN=CN3)cc2c1 (stereo not drawn) | 0.794 | 0.158 | – | -7 |
| NC1=NC(CC2=Cc3ccccc3CC2)CO1 (stereo not drawn) | 0.501 | 0.158 | – | -7.3 |
| CC1(C)CC(CC2CN=CN2)=Cc2ccccc21 (stereo not drawn) | 0.0398 | > 10 | -6.1 | -6 |
| Cc1ccc2c(c1)C=C(CC1CN=CN1)CC2 (stereo not drawn) | 1 | 0.0631 | -6.4 | -6.8 |
| C1=NCC(Cc2cc3cc(-c4ccccc4)ccc3o2)N1 (stereo not drawn) | 0.158 | > 10 | < -5.5 | < -5 |
| C1=NCC(CC2COc3ccccc3O2)N1 (stereo not drawn) | 1 | 1.26 | -6.2 | -7.5 |
| FC(F)(F)c1ccc2c(c1)C=C(CC1CN=CN1)CC2 (stereo not drawn) | > 10 | 0.158 | -5.9 | -6.4 |
| Cc1ccc2c(c1)CCC(CC1CN=C(N)O1)=C2 (stereo not drawn) | > 1 | 0.0794 | – | -5.8 |
| CC1(CC2=Cc3ccccc3CC2)CN=CN1 (stereo not drawn) | 0.316 | 0.0631 | -5.9 | -6.1 |
| Cc1ccc2c(c1)CCC(CC1CN=CN1)=C2 (stereo not drawn) | > 1 | 0.0158 | – | -6.4 |
| C[C@@]1(C[C@@H]2CN=CN2)CCc2ccccc2C1 | 0.2 | 0.01 | -6 | -7.1 |
| C1=C(CC2=NCCN2)CCc2ccccc21 [NAPAMEZOLE] | > 1 | 0.2 | -7 | -8.5 |
| Cc1cc2c(cc1C)CC(CC1CN=CN1)C2 (stereo not drawn) | 0.0251 | 0.02 | -6.7 | -7.6 |
| Fc1cc2c(cc1F)CC(CC1CN=CN1)C2 (stereo not drawn) | 0.1 | 0.0126 | -6.1 | -7.3 |
| C[C@@]1(C[C@H]2CN=CN2)CCc2ccccc2C1 | 0.0631 | 0.0316 | -5.7 | -6.6 |
| C1=C(Cc2c[nH]cn2)CCc2ccccc21 | 0.794 | 0.631 | -7.3 | -8.9 |
